From patent publication US8883758B2, “3,5-disubstituted and 3,5,7-trisubstituted-3H-oxazolo and 3H-thiazolo[4,5-d]pyrimidin-2-one compounds and prodrugs thereof” (Anadys Pharmaceuticals, Inc., priority 2004, dated 2014)

Key:
human PBMCs = test: IFN-α induction from peripheral blood mononuclear cells (PBMC), IFN-α ELISA; format: cell-based; settings: for Emax: Homo sapiens, PBMC, percentage of the level of IFN-α induction by either 32 or 100 μM isatoribine, 24 hours compound exposure, read-out: IFN-α induction from PBMCs relative to isatoribine; for Difference in amount of IFN-α produced compared with isatoribine: 100 μM test agent
Procedure: Peripheral blood mononuclear cells (PBMCs) are prepared by standard methods from human blood and are primarily comprised of monocytes, NK cells, circulating dendritic cells and both T and B cells. Briefly, they are purified by density gradient centrifugation from a buffy coat, which is the component of whole blood that contains leukocytes and platelets. In turn, buffy coats are prepared by centrifuging whole blood and isolating the thin cream colored layer between the upper plasma layer and the lower red blood cell portion of the separated mixture.
Freshly collected donor buffy coats were obtained from the San Diego Blood Bank. PBMCs were isolated from the buffy coats using histopaque-1077 gradient (Sigma), essentially as described in the manufacturer's protocol. Buffy coats were transferred into 50 ml centrifuge tubes and PBS added to a total volume of 35 ml. Next 10 ml histopaque-1077 was underlayed at the bottom of each tube, which were then centrifuged at 259×g for 30 minutes at room temperature without brake in a 5804 R centrifuge (Eppendorf). The top PBS level from each tube was removed and discarded and the buffy coat layer transferred to a fresh tube. The total volume was made up to 50 ml with PBS and the tubes were then centrifuged for 10 minutes at 259×g at room temperature. The cells were washed an additional 3 times with PBS in this manner.
The cell (PBMC) pellet was then resuspended in 30-40 ml complete (RPMI 1640) media. PBMCs were seeded at either 2.5 or 7.5×10^6 cells/ml complete media (1× and 3× seedings, respectively) and allowed to rest overnight before compound exposure for 24 hours. The cells and media were then collected, centrifuged for 5 minutes at 735×g in a 5415 C microfuge (Eppendorf) at room temperature and the supernatant analyzed by IFN-α ELISA. […] Hereby incorporated by reference in their entireties are U.S. Pat. Nos. 5,041,426 and 4,880,784, and U.S. patent application Ser. No. 10/861,430 (U.S. Patent Application Publication No. US 2005/0070556), which disclose, inter alia, IFN-α induction of isatoribine.
Accordingly, relative activities of the compounds of the invention are expressed as a percentage of the level of IFN-α induction by either 32 or 100 μM isatoribine.
Human IFN-α ELISA (#KHC4012) was performed as described in Biosource protocol. However, to ensure that readings were within the linear range of detection, PBMC supernatant samples were typically diluted 1:3 (2.5×10^6 cells/ml seeding) or 1:15 (7.5×10^6 cells/ml seeding) and then analyzed together with undiluted supernatant samples. The concentration in each sample was calculated from the O.D. by reference to a standard curve.

[1] = test system: fresh cynomolgus monkey hepatocytes; test: Metabolism of Formula I prodrugs to 6-oxy metabolites in fresh cynomolgus monkey hepatocytes (LC/MS/MS); format: in vitro ADME
Procedure: A study was undertaken to evaluate the metabolic stability of Formula I compounds 14, 15, 13, 114, 30, 103, 67, 65, and 76 in the presence of fresh cynomolgus monkey hepatocytes and monitor the formation of 6-oxy metabolites, i.e., Formula II compounds and other compounds of the invention. For comparison, the metabolic stability of famciclovir was also assessed.
Fresh cynomolgus monkey hepatocyte suspension (Lot #: Cy141) was purchased from CellzDirect (Tucson, Ariz.). Hepatocyte Incubation Medium (serum-free, sterile) was purchased from In Vitro Technologies (Baltimore, Md.).
The cynomolgus monkey hepatocyte suspension was prepared from fresh cynomolgus monkey hepatocytes in hepatocyte incubation medium at the concentration of 1.25 million cells/mL. The final incubation concentration (after test article addition) was 1.0 million cells/mL.
Existing 100 mM stock solutions in DMSO were used. The concentrations of the test articles were checked using UV-vis microplate reader. Correction coefficients were determined using the absorbance of a freshly prepared DMSO stock of 122.
Reaction suspensions were prepared in removable 96-well tubes, each containing 320 μL of fresh cynomolgus monkey hepatocyte suspension at the density of 1.25 million cells per mL and 40 μL of hepatocyte incubation medium. The above mixtures were pre-incubated open at 37° C., 95% humidity and 5% CO2 for 30 minutes. Reactions were initiated by the addition of 40 μL of test article at 10× concentration to each tube to achieve the final concentrations of 50 μM for the test article(s) and 1 million/mL cell density. The reaction suspension in each tube was mixed by inverting the tube several times. Aliquots of 50 μL from each reaction suspension were distributed into six additional removable 96-well tubes (one tube per time point taken at 15, 30, 45, 60, 90, and 120 minutes). The open tubes were incubated at 37° C. under 95% humidity and 5% CO2.
At predetermined time points, reactions were terminated by the addition of 150 μL of the stop solution to each tube containing 50 μL of the reaction suspension. The composition of the stop solution was the following: 15 mL of acetonitrile (containing 1 μg/mL nebularine as an internal standard and 0.1% formic acid) combined with 1 mL water.
The calibration curves were prepared in the following way. To 80 μL of cell suspension (at the cell density of 1.25 million/mL) 10 μL of hepatocyte incubation medium and 10 μL of the appropriate concentration of the compound in hepatocyte incubation medium were added Immediately following the compound addition, 300 μL of the stop solution (see above) was added.
All quenched samples were kept on wet ice until they were processed for analysis. Then they were mixed using a bench top Multi-Tube Vortexer (VWR Scientific Products) for approximately 30 seconds, and centrifuged at 4,000 rpm (3,220 rcf) for 10 minutes at 4° C. Clear supernatant (100 μl) was transferred into a clean deep well 96-well plate, evaporated to dryness under nitrogen, reconstituted in 100 μL of 90:10 water:acetonitrile, and analyzed for the parent form and metabolites of the test article using an appropriate LC/MS/MS method.
The compounds were quantified on an API3000 LC/MS/MS instrument in the ESI-Positive MRM (multiple reaction monitoring) mode.

[2] = 1× PBMC seeding, 100 μM test compound

| Structure (SMILES) | Emax (human PBMCs) [%] | further results |
| --- | --- | --- |
| Nc1nc2c(sc(=S)n2[C@@H]2O[C@H](CO)[C@@H](O)[C@H]2O)c(=O)[nH]1 [Compound 33, 5-amino-2,3-dihydro-2-thioxo-3-β-D-ribofuranosyl-thiazolo[4,5-d]pyrimidin-7(6H)-one] | 0 to 10 | – |
| CC(=O)OC[C@H]1O[C@@H](n2c(=O)sc3cnc(N)nc32)[C@H](OC(C)=O)[C@@]1(C)OC(C)=O [Compound 103, 5-Amino-3-(3′-methyl, 2′,3′,5′-tri-O-acetyl-β-D-xylofuranosyl)-3H-thiazolo[4,5-d]pyrimidin-2-one] | – | Metabolism to the corresponding 6-oxy metabolite [1]: metabolized to yield the corresponding 6-oxy metabolites |
| CC(=O)OCC(OC(C)=O)[C@H]1O[C@@H](n2c(=O)sc3c(=O)[nH]c(N)nc32)[C@H](OC(C)=O)[C@H]1OC(C)=O (stereo partly drawn) [Compound 142, 5-Amino-3-(5′-(1,2-diacetoxy-ethyl), 2′,3′-di-O-acetyl-β-D-glucofuranosyl)-3H,6H-thiazolo[4,5-d]pyrimidin-2-one] | 0 to 10 | – |
| Nc1nc2c(sc(=O)n2[C@H]2C[C@H](O)[C@@H](CO)O2)c(=O)[nH]1 [Compound 130, 5-Amino-3-(2′-deoxy-β-D-ribofuranosyl)-3H,6H-thiazolo[4,5-d]pyrimidine-2,7-dione] | 51 to 100 | – |
| C[C@@]1(O)[C@@H](CO)O[C@@H](n2c(=O)sc3c(=O)[nH]c(N)nc32)[C@@H]1O [Compound 117, 5-Amino-3-(3′-C-methyl-β-D-ribofuranosyl)thiazolo[4,5-d]pyrimidine-2,7(3H,6H)-dione] | > 100 | – |
| CC(=O)OC[C@H]1O[C@@H](n2c(=S)sc3c(=O)[nH]c(N)nc32)[C@H](OC(C)=O)[C@H]1OC(C)=O [Compound 34, 5-amino-2,3-dihydro-2-thioxo-3-(2′,3′,5′-tri-O-acetyl-β-D-xylofuranosyl)thiazolo[4,5-d]pyrimidin-7-(6H)-one] | > 100 | – |
| Nc1nc2c(sc(=O)n2[C@@H]2O[C@H](CO)[C@H](O)[C@H]2O)c(=O)[nH]1 [Compound 134] | > 100 | IFN-α production compared with isatoribine (human PBMCs; [2]): significantly and substantially more IFN-α production; IFN-α production compared with isatoribine (human PBMCs; 3× PBMC seeding, 32 μM): dramatically and unexpectedly outperform isatoribine; Difference in amount of IFN-α produced compared with isatoribine (human PBMCs; 3× PBMC seeding): less clear-cut although visually apparent and statistically significant |
| C[C@]1(O)[C@@H](CO)O[C@@H](n2c(=O)sc3c(=O)[nH]c(N)nc32)[C@@H]1O [Compound 141, 5-Amino-3-(3′-(S)-methyl, 2′,3′,5′-tri-hydroxy-β-D-xylofuranosyl)-3H,6H-thiazolo[4,5-d]pyrimidin-2-one] | 0 to 10 | – |
| CC(=O)OC[C@H]1O[C@@H](n2c(=S)sc3c(=O)[nH]c(N)nc32)[C@H](OC(C)=O)[C@@H]1OC(C)=O [Compound 32, 5-amino-2,3-dihydro-2-thioxo-3-(2′,3′,5′-tri-O-acetyl-β-D-ribofuranosyl)thiazolo[4,5-d]pyrimidin-7-(6H)-one] | 51 to 100 | – |
| Nc1nc2c(sc(=O)n2[C@H]2CC[C@@H](CO)O2)c(=O)[nH]1 [Compound 165, 5-Amino-3-(2′,3′-dideoxy-β-D-ribofuranosyl)-3H,6H-thiazolo[4,5-d]pyrimidine-2,7-dione] | 11 to 50 | – |
| CC(=O)OC[C@@H]1C[C@@H](OC(C)=O)[C@H](n2c(=O)sc3c(=O)[nH]c(N)nc32)O1 [Compound 121, 5-Amino-3-(2′,5′-di-O-acetyl-3′-deoxy-β-D-ribofuranosyl)-3H,6H-thiazolo[4,5-d]pyrimidine-2,7-dione] | > 100 | – |
| Nc1nc2c(sc(=O)n2[C@@H]2O[C@H](CO)[C@H](F)[C@H]2O)c(=O)[nH]1 [Compound 153, (3′R)-5-Amino-3-(3′-deoxy-3′-fluoro-β-D-xylofuranosyl)-3H,6H-thiazolo[4,5-d]pyrimidin-2,7-dione] | > 100 | – |
| Nc1nc2c(sc(=O)n2[C@@H]2O[C@H](CO)[C@@H](CO)[C@H]2O)c(=O)[nH]1 [Compound 148, (3′S)-5-Amino-3-(3′-deoxy-3′-hydroxymethyl-β-D-ribofuranosyl)-3H,6H-thiazolo[4,5-d]pyrimidin-2,7-dione] | 0 to 10 | – |
| CC(=O)O[C@@H]1[C@@H](F)[C@@H](COC(=O)c2ccccc2)O[C@H]1n1c(=O)sc2c(=O)[nH]c(N)nc21 [Compound 152, (3′R)-5-Amino-3-(2′-O-acetyl-5′-O-benzoyl-3′-deoxy-3′-fluoro-β-D-xylofuranosyl)-3H,6H-thiazolo[4,5-d]pyrimidin-2,7-dione] | 11 to 50 | – |
| CC(=O)OC[C@H]1[C@@H](OC(C)=O)[C@H](n2c(=O)sc3c(=O)[nH]c(N)nc32)O[C@@H]1COC(C)=O [Compound 147, (3′S)-5-Amino-3-(3′-acetoxymethyl-2′,5′-di-O-acetyl-3′-deoxy-β-D-ribofuranosyl)-3H,6H-thiazolo[4,5-d]pyrimidin-2,7-dione] | > 100 | – |
| CCCCCCn1c(=O)sc2c(=O)[nH]c(N)nc21 [Compound 157, 5-Amino-3-hexyl-3H,6H-thiazolo[4,5-d]pyrimidine-2,7-dione] | 0 to 10 | – |
| Nc1nc2c(sc(=O)n2[C@@H]2O[C@H](CO)C[C@H]2O)c(=O)[nH]1 [Compound 122, 5-Amino-3-(3′-deoxy-β-D-ribofuranosyl)-3H,6H-thiazolo[4,5-d]pyrimidine-2,7-dione] | > 100 | IFN-α production compared with isatoribine (human PBMCs; [2]): significantly and substantially more IFN-α production; IFN-α production compared with isatoribine (human PBMCs; 3× PBMC seeding, 32 μM): dramatically and unexpectedly outperform isatoribine; Difference in amount of IFN-α produced compared with isatoribine (human PBMCs; 3× PBMC seeding): less clear-cut although visually apparent and statistically significant |
| CO[C@@H]1[C@@H](O)[C@H](n2c(=O)sc3c(=O)[nH]c(N)nc32)O[C@@H]1CO [Compound 137, 5-Amino-3-(3′-(R)-Methoxy-β-D-xylofuranosyl)-3H,6H-thiazolo[4,5-d]pyrimidin-2-one] | 51 to 100 | – |
| C=C1[C@@H](O)[C@H](n2c(=O)sc3c(=O)[nH]c(N)nc32)O[C@@H]1CO [Compound 132, 5-Amino-3-(3′-deoxy-3′-methylidene-β-D-ribofuranosyl)-3H,6H-thiazolo[4,5-d]pyrimidine-2,7-dione] | > 100 | – |
| CC(=O)OC[C@H]1O[C@@H](n2c(=O)sc3c(=O)[nH]c(N)nc32)[C@H](OC(C)=O)[C@H]1OC(C)=O [Compound 133, 5-Amino-3-(2′,3′,5′-tri-O-acetyl-β-D-xylofuranosyl)-3H,6H-thiazolo[4,5-d]pyrimidin-2-one] | > 100 | – |
